Results reported in patent US20260167615A1, “COMPOUNDS AND COMPOSITIONS AS GPR52 MODULATORS” (Neurocrine Biosciences, Inc., priority 2022, published 2026).

Target: recombinant human GPR52 (Homo sapiens, UniProt Q9Y2T5)
Assay: HTRF cAMP assay, GPR52 activity (Example A)
Type: cell-based
Details: for EC50: average EC50 (n=1 to 15), Flp-In-CHO cells stably expressing recombinant human GPR52, cAMP HTRF, read-out: EC50 (N=); for Emax: maximum cAMP at 10 μM or 31.6 μM test compound, as percentage of Emax of control compound 4-(3-(3-fluoro-5-(trifluoromethyl)benzyl)-5-methyl-4,5-dihydro-1H-1,2,4-triazol-1-yl)-2-methylbenzamide
Procedure: Compounds of Formula I were assessed for their ability to modulate GPR52 activity. HTRF CAMP assays were performed using a commercially available assay kit (CAMP Gs HiRange HTRF®, CisBio). Controls and compounds were solubilized in DMSO and 62.5 nanoliters of the diluted compounds were transferred into 384-well NBS assay plates via acoustic or precision low-volume dispensing. Compounds were further diluted to 1× with the addition of 20,000 cells per well. Flp-In™—CHO cells that stably express recombinant human GPR52 were used in the assay.
Cells were harvested with cell stripper and resuspended in stimulation buffer. After thirty minutes incubation at room temperature, detection reagents were added to each well. Plates were then incubated for an additional 30 minutes at room temperature. CAMP produced by the cells during the first incubation period competes with d2-labeled CAMP for binding to an anti-cAMP monoclonal antibody labeled with europium cryptate. The measured signal was inversely proportional to the concentration of cAMP produced by the cells and this signal was quantified using a PHERAstar® multi-mode plate reader.
Dose-response curves were generated from the HTRF counts that have been transformed based on a CAMP referenced curve, and then normalized to the positive control. EC50 values were obtained using a nonlinear regression curve-fitting program. […] The Emax (Table 13) is the maximum amount of cAMP (nM) produced by incubation of the cells with 10 μM or 31.6 μM of a test compound. The compound is defined by the top plateau of the sigmoid curve fit. The curve is then normalized to a control compound, in this case 4-(3-(3-fluoro-5-(trifluoromethyl)benzyl)-5-methyl-4,5-dihydro-1H-1,2,4-triazol-1-yl)-2-methylbenzamide (Tokumaru, K., et al., “Design, synthesis, and pharmacological evaluation of 4-azolyl-benzamide derivatives as novel GPR52 agonists”, Bioorganic & Medicinal Chemistry, Volume 25, Issue 12, June 2017, pages 3098-3115), and expressed as a percentage of the Emax of that control compound.

recombinant human GPR52, sequence (Q9Y2T5 whole entry): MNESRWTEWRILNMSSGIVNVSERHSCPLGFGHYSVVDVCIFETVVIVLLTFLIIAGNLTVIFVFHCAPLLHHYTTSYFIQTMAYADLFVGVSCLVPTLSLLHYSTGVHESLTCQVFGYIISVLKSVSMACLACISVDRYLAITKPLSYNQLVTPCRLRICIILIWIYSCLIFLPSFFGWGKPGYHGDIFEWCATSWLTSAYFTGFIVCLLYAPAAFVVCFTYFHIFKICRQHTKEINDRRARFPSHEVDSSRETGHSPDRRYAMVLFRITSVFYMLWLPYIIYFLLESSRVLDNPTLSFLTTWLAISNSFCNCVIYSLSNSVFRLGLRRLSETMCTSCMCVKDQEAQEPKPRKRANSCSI

Row | SMILES | EC50 [µM] | Emax [%]
1 | CCc1cc(-c2cc(Oc3ccc4ncccc4c3)ccn2)ccc1C(N)=O [Example 70, 2-ethyl-4-(4-(quinolin-6-yloxy)pyridin-2-yl)benzamide] | 0.101 to 1 | 126
2 | Cc1cc(-c2cc(Oc3ccc4c(N)nn(C)c4c3)ccn2)ccc1C(N)=O [Example 49, 4-(4-((3-amino-1-methyl-1H-indazol-6-yl)oxy)pyridin-2-yl)-2-methylbenzamide] | 0.101 to 1 | 53
3 | Cc1cc(-c2cc(Oc3ccc4c(C)nn(C)c4c3)cc(N)n2)ccc1C(N)=O [Example 19, 4-(6-amino-4-((1,3-dimethyl-1H-indazol-6-yl)oxy)pyridin-2-yl)-2-methylbenzamide] | 0.101 to 1 | 90
4 | CCc1cc(-c2cc(Oc3cnc4c(C(F)(F)F)nn(C)c4c3)ccn2)ccc1C(N)=O [Example 29, 2-ethyl-4-(4-((1-methyl-3-(trifluoromethyl)-1H-pyrazolo[4,3-b]pyridin-6-yl)oxy)pyridin-2-yl)benzamide] | 0.101 to 1 | 84
5 | Cc1cc(-c2cc(Oc3cnc4c(c3)c(C)nn4C)ccn2)ccc1C(N)=O [Example 54, 4-(4-((1,3-dimethyl-1H-pyrazolo[3,4-b]pyridin-5-yl)oxy)pyridin-2-yl)-2-methylbenzamide] | 0.101 to 1 | 110
6 | Cc1cc(-c2cc(Oc3cccc4c3cnn4C)ccn2)ccc1C(N)=O [Example 7, 2-methyl-4-(4-((1-methyl-1H-indazol-4-yl)oxy)pyridin-2-yl)benzamide] | 1 to 2 | 68
7 | Cc1nn(C)c2cc(Oc3ccnc(-c4ccc(C(N)=O)c(Cl)c4)c3)ccc12 [Example 40, 2-chloro-4-(4-((1,3-dimethyl-1H-indazol-6-yl)oxy)pyridin-2-yl)benzamide] | 0.025 to 0.1 | 92
8 | Cn1ncc2ccc(Oc3ccnc(-c4ccc(C(N)=O)c(Cl)c4)c3)cc21 [Example 45, 2-chloro-4-(4-((1-methyl-1H-indazol-6-yl)oxy)pyridin-2-yl)benzamide] | 0.101 to 1 | 88
9 | Cc1cc(-c2cc(Oc3ccc4c(c3)CCO4)ccn2)ccc1C(N)=O [Example 67, 4-(4-((2,3-dihydrobenzofuran-5-yl)oxy)pyridin-2-yl)-2-methylbenzamide] | 0.101 to 1 | 129
10 | CCn1ncc2ccc(Oc3ccnc(-c4ccc(C(N)=O)c(C)c4)c3)cc21 [Example 44, 4-(4-((1-ethyl-1H-indazol-6-yl)oxy)pyridin-2-yl)-2-methylbenzamide] | 0.101 to 1 | 91
11 | Cc1cc(-c2cc(N)nc(Oc3ccc4nn(C)cc4c3)c2)ccc1C(N)=O [Example 15, 4-(2-amino-6-((2-methyl-2H-indazol-5-yl)oxy)pyridin-4-yl)-2-methylbenzamide] | 1 to 2 | 72
12 | Cn1ncc2ncc(Oc3ccnc(-c4ccc(C(N)=O)c(C(F)(F)F)c4)c3)cc21 [Example 33, 4-(4-((1-methyl-1H-pyrazolo[4,3-b]pyridin-6-yl)oxy)pyridin-2-yl)-2-(trifluoromethyl)benzamide] | 0.101 to 1 | 90
13 | Cc1cc(-c2cc(Oc3ccc4nn(C)cc4c3)ccn2)ccc1C(N)=O [Example 6, 2-methyl-4-(4-((2-methyl-2H-indazol-5-yl)oxy)pyridin-2-yl)benzamide] | 0.101 to 1 | 110
14 | CCc1cc(-c2cc(Oc3cnc4c(c3)c(C)nn4C)cc(N)n2)ccc1C(N)=O [Example 22, 4-(6-amino-4-((1,3-dimethyl-1H-pyrazolo[3,4-b]pyridin-5-yl)oxy)pyridin-2-yl)-2-ethylbenzamide] | 0.101 to 1 | 123
15 | CCc1cc(-c2cccc(Oc3cnc4c(C)nn(C)c4c3)c2)ccc1C(N)=O [Example 32, 3′-((1,3-dimethyl-1H-pyrazolo[4,3-b]pyridin-6-yl)oxy)-3-ethyl-[1,1′-biphenyl]-4-carboxamide] | 0.101 to 1 | 103
16 | Cc1cc(-c2cc(Oc3ccc4c(C(F)(F)F)nn(C)c4c3)ccn2)ccc1C(N)=O [Example 37, 2-methyl-4-(4-((1-methyl-3-(trifluoromethyl)-1H-indazol-6-yl)oxy)pyridin-2-yl)benzamide] | 0.101 to 1 | 81
17 | CCNC(=O)c1ccc(-c2cc(Oc3ccc4cnn(C)c4c3)ccn2)cc1C [Example 63, N-ethyl-2-methyl-4-(4-((1-methyl-1H-indazol-6-yl)oxy)pyridin-2-yl)benzamide] | 0.101 to 1 | 70
18 | CCc1cc(-c2cc(Oc3cnc4cnn(C)c4c3)cc(N)n2)ccc1C(N)=O [Example 17, 4-(6-amino-4-((1-methyl-1H-pyrazolo[4,3-b]pyridin-6-yl)oxy)pyridin-2-yl)-2-ethylbenzamide] | 0.101 to 1 | 102
19 | CCc1cc(-c2cccc(Oc3ccc4cnn(C)c4c3)c2)ccc1C(N)=O [Example 52, 3-ethyl-3′-((1-methyl-1H-indazol-6-yl)oxy)-[1,1′-biphenyl]-4-carboxamide] | 1 to 2 | 86
20 | Cc1cc(-c2cccc(Oc3ccc4cnn(C)c4c3)n2)ccc1C(N)=O [Example 9, 2-methyl-4-(6-((1-methyl-1H-indazol-6-yl)oxy)pyridin-2-yl)benzamide] | 1 to 2 | 91
21 | CCc1cc(-c2cc(Oc3ccc4cnn(C)c4c3)cc3nccn23)ccc1C(N)=O [Example 26, 2-ethyl-4-(7-((1-methyl-1H-indazol-6-yl)oxy)imidazo[1,2-a]pyridin-5-yl)benzamide] | 0.025 to 0.1 | 75
22 | Cc1cc(-c2cc(Oc3ccc4c(c3)NCCO4)ccn2)ccc1C(N)=O [Example 69, 4-(4-((3,4-dihydro-2H-benzo[b][1,4]oxazin-6-yl)oxy)pyridin-2-yl)-2-methylbenzamide] | < 0.025 | 119
23 | CNC(=O)c1ccc(-c2cc(Oc3ccc4cnn(C)c4c3)ccn2)cc1C [Example 62, N,2-dimethyl-4-(4-((1-methyl-1H-indazol-6-yl)oxy)pyridin-2-yl)benzamide] | 0.101 to 1 | 84

The next lines start with the values.

Row | EC50 [µM] | Emax [%] | SMILES
24 | 0.101 to 1 | 138 | CCc1cc(-c2cc(Oc3ccc4ncc(F)cc4c3)ccn2)ccc1C(N)=O [Example 95, 2-ethyl-4-(4-((3-fluoroquinolin-6-yl)oxy)pyridin-2-yl)benzamide]
25 | 0.025 to 0.1 | 146 | CCc1cc(-c2cc(Oc3ccc4ncc(C)cc4c3)ccn2)ccc1C(N)=O [Example 107, 2-ethyl-4-(4-((3-methylquinolin-6-yl)oxy)pyridin-2-yl)benzamide]
26 | 0.101 to 1 | 120 | Cc1cc(-c2cc(Oc3cc(F)c4ncc(F)cc4c3)ccn2)ccc1C(N)=O [Example 119, 4-(4-((3,8-difluoroquinolin-6-yl)oxy)pyridin-2-yl)-2-methylbenzamide]
27 | 0.101 to 1 | 115 | Cc1cc(-c2cc(Oc3ccc4c(C)nn(C(F)(F)F)c4c3)ccn2)ccc1C(N)=O [Example 135, 2-methyl-4-(4-((3-methyl-1-(trifluoromethyl)-1H-indazol-6-yl)oxy)pyridin-2-yl)benzamide]
28 | 0.101 to 1 | 66 | CCc1cc(-c2cc(Oc3ccc4ccncc4c3)ccn2)ccc1C(N)=O [Example 73, 2-ethyl-4-(4-(162yridine162ine-7-yloxy)162yridine-2-yl)benzamide]
29 | 0.101 to 1 | 114 | CCc1cc(-c2cc(Oc3cnc4c(F)nn(C)c4c3)ccn2)ccc1C(N)=O [Example 131, 2-ethyl-4-(4-((3-fluoro-1-methyl-1H-pyrazolo[4,3-b]pyridin-6-yl)oxy)pyridin-2-yl)benzamide]
30 | 0.025 to 0.1 | 107 | CCc1cc(-c2cc(Oc3ccc4cnccc4c3)ccn2)ccc1C(N)=O [Example 71, 2-ethyl-4-(4-(isoquinolin-6-yloxy)pyridin-2-yl)benzamide]
31 | 0.101 to 1 | 110 | CCc1cc(-c2cc(Oc3cnc4ccc(F)cc4c3)ccn2)ccc1C(N)=O [Example 104, 2-ethyl-4-(4-((6-fluoroquinolin-3-yl)oxy)pyridin-2-yl)benzamide]
32 | 1 to 2 | 100 | Cc1cc(-c2cc(Oc3ccc4ncncc4c3)ccn2)ccc1C(N)=O [Example 124, 2-methyl-4-(4-(quinazolin-6-yloxy)pyridin-2-yl)benzamide]
33 | 0.101 to 1 | 120 | Cc1cc(-c2cc(Oc3ccc4ncc(F)cc4c3)ccn2)ccc1C(N)=O [Example 96, 4-(4-((3-fluoroquinolin-6-yl)oxy)pyridin-2-yl)-2-methylbenzamide]
34 | 0.101 to 1 | 129 | Cc1cc(-c2cc(Oc3ccc4cnn(C)c4c3)cc(CN)n2)ccc1C(N)=O [Example 94, 4-(6-(aminomethyl)-4-((1-methyl-1H-indazol-6-yl)oxy)pyridin-2-yl)-2-methylbenzamide]
